Measured values as given in PMC9241057, “Ru(II)arene(N^N bpy/phen)-based RAPTA complexes for in vitro anti-tumour activity in human glioblastoma cancer cell lines and in vivo toxicity studies in a zebrafish model” (RSC Advances, 2022).

Key:
Conductivity measurement = type: physicochemical; conditions: 3 x 10^-5 M; for Conductivity (ΛM) 10% aq DMSO: in 10% aq DMSO; for Conductivity (ΛM) DMSO: in DMSO
From the text: (§1) concentrations gradually.
Origin Lab, version 8.5 was
(§2) equation (v) given below: […]
Conductivity measurement 7
complexes with DMSO and aqueous DMSO.
followed the previously described procedure. An orbital shaker was used to shake a known
Different ratios (0.5:1, 1:1,
saturated n-octanol to get the partition coefficient. The absorbance of aliquots of the aqueous

T98G cell line = experiment: Time-dependent ROS generation study, DCFH-DA staining; type: cell-based, human; conditions: 20 μM, 2, 6 and 10 h
Procedure: The oxidative stress was measured by the level of intracellular ROS via 2′,7′-dichlorodihydrofluorescein diacetate (DCFH-DA) staining.[24] […] Herein, cells were treated with complexes 4c and 4d with a concentration of 20 μM for 2, 6 and 10 h. We observed a higher level of […] fluorescence with the increase in the incubation time because of ROS generation (Fig. 6).
Fig. 7 Graphical representation of the average DCF fluorescence intensity in the T98G cell line upon treatment with cisplatin and complexes 4c and 4d. Incubation time: 2 h, 6 h and 10 h.
Brain cancer cells were stained with 2′,7′-dichlorofluorescein diacetate (DCFDA) to measure the reactive oxygen species (ROS) and subsequent oxidative stress generated from RAPTA complexes. They were restained by the […] fluorescence intensity generated from oxidized DCFDA. The cancer cells were cultured in a 24-well plate till 70% confluency and treatment was carried out with the aforesaid complex for 24 hours. The ROS generation mediated by the complex was evaluated using DCFDA-2′,7′-dichlorofluorescein diacetate (25 μM) staining for 30 min. The cells were washed with PBS, followed by fresh media replenishment. The images were captured under the EVOS M5000 fluorescent live cell imager (Thermo Fisher Scientific, USA).

LN229 = experiment: MTT cytotoxicity assay, LN229; type: cell-based, human; conditions: 72 h incubation
Procedure: (§3) The cytotoxic activity of prepared RAPTA complexes (4a–4h) was evaluated by following the standard procedure of the MTT experiment against a series of glioblastoma cells (LN 229, T98, U87MG) in triplicate. In order to accomplish this study, cells were maintained for 72 h with complexes of various concentrations ranging from 2–160 μM, taking cisplatin as a typical positive control.[22]
(§4) RAPTA complexes were dissolved in 1% DMSO, and 0.9% NaCl aqueous solution was used to dissolve cisplatin. A cell suspension was prepared and the number of cells taken was 2.5 × 10^4 mL^−1. The cells were seeded in 96-well plates (200 μL per well) and allowed 80% confluence prior to treatment. The cells were formerly treated with various concentrations (2.5–160 μM) of complex 4a–h while the control group was treated with PBS […]. After the 72 hours of incubation, 0.5% MTT solution was added to each well (20 μL) and further incubated for 4 hours at […]. The formazan crystals that were formed were dissolved in 150 μL DMSO and then the OD was measured by a microplate reader at 540 nm. The % growth inhibition of the control and treated cells were calculated and represented as the growth inhibition percentage as explained below.% growth inhibition = 100 − [(AD × 100)/AB]where AD is the absorbance measured in wells containing the treated and control samples and AB is the measured absorbance for the wells with media and a vehicle that served as the blank. IC50 was calculated using Graphpad Prism (version 6.0) where % cell viability was plotted against drug concentration.

U87MG = experiment: MTT cytotoxicity assay, U87MG; type: cell-based, human; conditions: 72 h incubation
Procedure: as §3, §4

[1] = target: bovine serum albumin (BSA) (Bos taurus, UniProt P02769); experiment: BSA binding study, tryptophan emission quenching; conditions: for n, number of binding sites (BSA): Scatchard equation; for kq, quenching rate constant (BSA): from KBSA and τo (1 × 10^−8 s)
Procedure: The KBSA of the complexes was obtained from Stern–Volmer plots by applying the well-known Stern–Volmer equation (Fig. S4 ^†). On the other hand, the quenching constants (kq) of 6.3 × 10^14 M^−1 s^−1 and 1.8 × 10^14 M^−1 s^−1 arising from biomolecular interactions were evaluated from KBSA and τo (1 × 10^−8 s) for the complexes 4c and 4d, correspondingly (Table S3 ^†). […]
Kapp × [Complex]50 = kEtBr × [EtBr]⋯⋯⋯(iii) […]
Stern-Volmer equation was followed for quantitative determination of the Stern-Volmer quenching constant (K SV).4 Origin (8.5) software was used to plot the fluorescence data to obtain linear plot of I0/I vs. [complex]. The value of KSV was calculated from the following […]
Where I0 = fluorescence intensity in absence of complex and I = fluorescence intensities in presence of complex of concentration [Q].
Protein binding studies 5
The main component is serum albumin proteins in drug transport and metabolism, as we all know. The interaction of the complex with […] serum albumin (BSA) was examined using a tryptophan emission quenching experiment. The association of the RAPTA complexes 4c and 4d with the protein BSA was detected using a tryptophan emission quenching assay. […]
as §1
Origin Lab, version 8.5 was […]
as §2

Ct-DNA = experiment: Viscosity measurement with Ct-DNA; type: binding, calf; conditions: with respect to EtBr
Procedure: The hydrodynamic study of the viscosity was conducted to screen the binding nature of the designated complexes 4c and 4d with Ct-DNA.
with respect to cisplatin.
UV–Visible, fluorescence spectroscopies and cyclic voltammetry, J. Photochem.
2. M. Shamsi-Sani, F. Hirini, SM. Abedini, M. Seddighi, Synthesis of benzimidazole
dipyridoquinoxaline and dipyridophenazine ligands as photosensitizing antennae:
curvature in Stern-Volmer plots, J. Am. Chem. Soc., 1983, 105, 1494–1498. (b) B.
hypoxia active, GSH-resistant cancer cytoselective and mitochondria-targeting
cancer stem cell therapeutic agents. Dalton Trans., 2022, 51, 5494-5514.
derivative with bovine serum albumin, J. Pharm. Anal., 2016, 6, 56–63.
6. K. Jeyalakshmi, J. Haribabu, C. Balachandran, S. Swaminathan, N. S. P.

Sequence of bovine serum albumin (BSA) (P02769 25-607): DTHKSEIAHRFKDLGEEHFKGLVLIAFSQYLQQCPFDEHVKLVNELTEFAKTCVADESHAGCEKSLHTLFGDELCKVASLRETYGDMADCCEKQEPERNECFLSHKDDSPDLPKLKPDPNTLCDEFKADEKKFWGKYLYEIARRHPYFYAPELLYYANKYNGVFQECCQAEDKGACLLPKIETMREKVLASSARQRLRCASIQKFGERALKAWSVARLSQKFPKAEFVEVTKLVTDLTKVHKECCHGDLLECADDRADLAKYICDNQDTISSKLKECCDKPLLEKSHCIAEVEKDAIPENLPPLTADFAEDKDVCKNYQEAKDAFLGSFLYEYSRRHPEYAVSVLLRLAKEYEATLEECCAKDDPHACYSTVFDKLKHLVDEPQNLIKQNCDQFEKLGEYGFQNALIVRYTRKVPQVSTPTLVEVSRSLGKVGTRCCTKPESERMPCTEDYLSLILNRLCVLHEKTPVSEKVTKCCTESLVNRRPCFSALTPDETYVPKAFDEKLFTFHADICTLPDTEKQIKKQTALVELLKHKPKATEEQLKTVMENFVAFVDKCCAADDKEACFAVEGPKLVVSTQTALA

Row | Compound | Conductivity (ΛM) 10% aq DMSO (Conductivity measurement) | Conductivity (ΛM) DMSO (Conductivity measurement) | average DCF fluorescence intensity (intracellular ROS) (T98G cell line) | IC50 (LN229) | IC50 (U87MG) | n, number of binding sites (BSA) [1] | kq, quenching rate constant (BSA) [1] | relative viscosity of Ct-DNA on increasing complex concentration (Ct-DNA) | K, binding constant with BSA ([1]; Scatchard plot)
1 | C1N2CN3CN1CP(C2)C3.Cc1ccc(C(C)C)cc1.Cc1ccnc2c1ccc1c(C)ccnc12.F[P-](F)(F)(F)(F)F.F[P-](F)(F)(F)(F)F.[Ru+2] [4c, [(η^6-p-Cymene)Ru^II(κ^2-N,N-4,7dimethylphenanthroline)(PTA)]·2PF6] | 78 S cm2 mol-1 | 76 S cm2 mol-1 | gradual increase with respect to the incubation time | 880 ± 20 nM | 970 ± 20 nM | 1 | 6.3e+14 M⁻¹ s⁻¹ | abrupt increase in viscosity up to ri = 2 | 
2 | C1N2CN3CN1CP(C2)C3.Cc1ccc(C(C)C)cc1.F[P-](F)(F)(F)(F)F.F[P-](F)(F)(F)(F)F.[Ru+2].c1ccc(-c2ccnc3c2ccc2c(-c4ccccc4)ccnc23)cc1 [4d, [(η^6-p-Cymene)Ru^II(κ^2-N,N-4,7diphenylphenanthroline)(PTA)]·2PF6] | 77 S cm2 mol-1 | 74 S cm2 mol-1 | gradual increase with respect to the incubation time | 960 ± 20 nM | 930 ± 20 nM | 1 | 1.8e+14 M⁻¹ s⁻¹ | steady escalation in the relative viscosity | 52500 M⁻¹
